Measurements from ChEMBL document CHEMBL4507289, “Data for DCP probe GSM1” (2021).

Key:
Settings in all cases: Compound concentration 1000.0 nM
[1] = target: Receptor-interacting serine/threonine-protein kinase 2 (Homo sapiens) (UniProt O43353)
[2] = target: Serine/threonine-protein kinase MRCK beta (Homo sapiens) (UniProt Q9Y5S2)
[3] = target: Serine/threonine-protein kinase B-raf (Homo sapiens) (UniProt P15056)
[4] = target: Ribosomal protein S6 kinase alpha-2 (Homo sapiens) (UniProt Q15349)
[5] = target: Receptor-interacting serine/threonine-protein kinase 4 (Homo sapiens) (UniProt P57078)
[6] = test system: Tyrosine-protein kinase ABL1 (Homo sapiens), P00519 [E255K]
[7] = target: Serine/threonine-protein kinase Nek4 (Homo sapiens) (UniProt P51957)
Serine/threonine-protein kinase Nek4 (Homo sapiens), sequence (P51957 whole entry, looked up): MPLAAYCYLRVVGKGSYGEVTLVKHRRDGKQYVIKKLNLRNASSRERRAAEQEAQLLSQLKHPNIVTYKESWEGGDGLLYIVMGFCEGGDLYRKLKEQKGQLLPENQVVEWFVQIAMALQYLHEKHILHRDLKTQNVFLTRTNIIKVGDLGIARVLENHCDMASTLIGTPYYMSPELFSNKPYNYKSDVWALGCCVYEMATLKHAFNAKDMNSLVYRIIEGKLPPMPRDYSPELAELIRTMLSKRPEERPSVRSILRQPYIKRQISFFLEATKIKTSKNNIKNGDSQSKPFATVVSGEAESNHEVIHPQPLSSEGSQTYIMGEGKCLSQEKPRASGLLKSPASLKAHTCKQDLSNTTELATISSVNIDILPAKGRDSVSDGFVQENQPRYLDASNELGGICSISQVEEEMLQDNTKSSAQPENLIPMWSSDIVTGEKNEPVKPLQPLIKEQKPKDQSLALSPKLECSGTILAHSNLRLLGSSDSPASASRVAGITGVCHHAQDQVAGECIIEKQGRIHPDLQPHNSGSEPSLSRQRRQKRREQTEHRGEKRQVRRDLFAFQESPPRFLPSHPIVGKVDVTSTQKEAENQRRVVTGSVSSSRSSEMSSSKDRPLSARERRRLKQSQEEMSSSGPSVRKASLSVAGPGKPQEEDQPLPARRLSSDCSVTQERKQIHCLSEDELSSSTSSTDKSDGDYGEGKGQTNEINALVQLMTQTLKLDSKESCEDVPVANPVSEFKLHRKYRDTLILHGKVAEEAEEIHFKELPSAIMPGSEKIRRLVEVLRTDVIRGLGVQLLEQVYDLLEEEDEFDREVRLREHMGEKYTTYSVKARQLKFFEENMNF

[8] = target: Mitogen-activated protein kinase 8 (Homo sapiens) (UniProt P45983)
[9] = target: Receptor-type tyrosine-protein kinase FLT3 (Homo sapiens) (UniProt P36888)
[10] = test system: eIF-2-alpha kinase GCN2 (Homo sapiens), Q9P2K8 [S808G]
[11] = test system: Epidermal growth factor receptor (Homo sapiens), P00533 [UNDEFINED MUTATION]
Epidermal growth factor receptor (Homo sapiens), P00533 [UNDEFINED MUTATION], sequence (P00533 whole entry, looked up, change not shown): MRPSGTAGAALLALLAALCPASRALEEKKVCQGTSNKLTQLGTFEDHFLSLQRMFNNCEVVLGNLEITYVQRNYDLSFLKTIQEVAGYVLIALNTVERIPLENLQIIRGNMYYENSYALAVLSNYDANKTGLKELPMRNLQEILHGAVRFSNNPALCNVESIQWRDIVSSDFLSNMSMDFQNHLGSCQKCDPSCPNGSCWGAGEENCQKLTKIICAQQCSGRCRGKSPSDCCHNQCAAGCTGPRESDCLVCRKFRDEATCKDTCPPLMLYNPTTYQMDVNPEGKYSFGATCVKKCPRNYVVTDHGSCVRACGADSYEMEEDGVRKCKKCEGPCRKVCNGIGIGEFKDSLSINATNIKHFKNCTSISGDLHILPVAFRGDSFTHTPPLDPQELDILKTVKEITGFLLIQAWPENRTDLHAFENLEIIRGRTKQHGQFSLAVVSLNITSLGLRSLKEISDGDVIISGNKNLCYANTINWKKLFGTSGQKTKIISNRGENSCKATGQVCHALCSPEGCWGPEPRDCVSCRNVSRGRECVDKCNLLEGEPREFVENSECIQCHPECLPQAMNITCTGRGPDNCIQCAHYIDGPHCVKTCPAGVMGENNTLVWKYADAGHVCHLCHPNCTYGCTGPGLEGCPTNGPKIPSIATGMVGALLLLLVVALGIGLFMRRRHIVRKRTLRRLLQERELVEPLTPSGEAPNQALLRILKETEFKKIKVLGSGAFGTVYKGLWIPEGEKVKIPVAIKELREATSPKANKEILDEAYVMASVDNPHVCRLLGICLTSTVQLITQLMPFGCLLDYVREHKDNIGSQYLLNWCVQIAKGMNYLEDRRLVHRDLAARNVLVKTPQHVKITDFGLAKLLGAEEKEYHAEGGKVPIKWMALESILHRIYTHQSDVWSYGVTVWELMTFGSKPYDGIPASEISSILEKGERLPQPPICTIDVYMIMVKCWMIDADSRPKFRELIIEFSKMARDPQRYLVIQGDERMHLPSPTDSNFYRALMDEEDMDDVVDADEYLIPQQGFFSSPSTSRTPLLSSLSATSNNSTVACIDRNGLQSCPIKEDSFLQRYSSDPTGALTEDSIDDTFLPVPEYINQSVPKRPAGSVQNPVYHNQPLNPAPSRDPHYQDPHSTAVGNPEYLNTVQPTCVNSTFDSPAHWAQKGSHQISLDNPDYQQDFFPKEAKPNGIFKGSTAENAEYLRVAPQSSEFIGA

[12] = target: Death-associated protein kinase 1 (Homo sapiens) (UniProt P53355)
[13] = test system: ALK tyrosine kinase receptor (Homo sapiens), Q9UM73 [C1156Y]
[14] = target: Serine/threonine-protein kinase PLK3 (Homo sapiens) (UniProt Q9H4B4)
[15] = target: Cyclin-dependent kinase 3 (Homo sapiens) (UniProt Q00526)
[16] = target: Phosphatidylinositol 5-phosphate 4-kinase type-2 beta (Homo sapiens) (UniProt P78356)
[17] = target: Aurora kinase C (Homo sapiens) (UniProt Q9UQB9)
Aurora kinase C (Homo sapiens), sequence (Q9UQB9 whole entry): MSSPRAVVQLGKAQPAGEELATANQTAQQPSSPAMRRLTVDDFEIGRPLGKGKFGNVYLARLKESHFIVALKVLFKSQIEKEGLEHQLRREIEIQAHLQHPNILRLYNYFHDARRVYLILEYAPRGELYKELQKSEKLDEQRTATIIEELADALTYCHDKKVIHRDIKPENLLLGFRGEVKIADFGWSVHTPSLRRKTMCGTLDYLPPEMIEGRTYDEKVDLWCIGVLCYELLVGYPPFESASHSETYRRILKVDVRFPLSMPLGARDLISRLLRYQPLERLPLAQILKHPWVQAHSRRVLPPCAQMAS

[18] = target: Rho-associated protein kinase 1 (Homo sapiens) (UniProt Q13464)
[19] = test system: Receptor-type tyrosine-protein kinase FLT3 (Homo sapiens), P36888 [D835H]
[20] = target: Dual serine/threonine and tyrosine protein kinase (Homo sapiens) (UniProt Q6XUX3)
[21] = target: Serine/threonine-protein kinase N2 (Homo sapiens) (UniProt Q16513)
[22] = test system: Hepatocyte growth factor receptor (Homo sapiens), P08581 [Y1235D]
[23] = target: Serine/threonine-protein kinase TAO3 (Homo sapiens) (UniProt Q9H2K8)
[24] = target: Ribosomal protein S6 kinase alpha-1 (Homo sapiens) (UniProt Q15418)
Ribosomal protein S6 kinase alpha-1 (Homo sapiens), sequence (Q15418 whole entry): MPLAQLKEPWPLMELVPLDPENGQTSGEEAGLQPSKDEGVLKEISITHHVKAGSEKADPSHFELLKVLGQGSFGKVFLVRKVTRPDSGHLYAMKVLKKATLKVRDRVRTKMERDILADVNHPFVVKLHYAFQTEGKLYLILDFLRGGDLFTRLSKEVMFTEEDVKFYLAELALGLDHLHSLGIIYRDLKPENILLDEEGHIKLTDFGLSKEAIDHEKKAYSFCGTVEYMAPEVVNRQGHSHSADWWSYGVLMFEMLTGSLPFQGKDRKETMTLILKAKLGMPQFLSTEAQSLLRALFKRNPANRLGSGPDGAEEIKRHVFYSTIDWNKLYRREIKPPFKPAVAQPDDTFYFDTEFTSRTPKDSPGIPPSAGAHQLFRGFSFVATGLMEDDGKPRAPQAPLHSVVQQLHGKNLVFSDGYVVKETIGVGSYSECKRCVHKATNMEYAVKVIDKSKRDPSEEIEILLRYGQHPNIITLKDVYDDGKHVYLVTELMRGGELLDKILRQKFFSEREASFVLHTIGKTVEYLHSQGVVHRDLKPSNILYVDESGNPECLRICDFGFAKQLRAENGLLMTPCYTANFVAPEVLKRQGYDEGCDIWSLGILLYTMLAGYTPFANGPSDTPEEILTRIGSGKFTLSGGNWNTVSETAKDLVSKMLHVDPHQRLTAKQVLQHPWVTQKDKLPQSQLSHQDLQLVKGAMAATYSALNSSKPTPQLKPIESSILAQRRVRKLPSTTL

[25] = target: BDNF/NT-3 growth factors receptor (Homo sapiens) (UniProt Q16620)
[26] = target: Ribosomal protein S6 kinase alpha-3 (Homo sapiens) (UniProt P51812)
[27] = target: Activin receptor type-1-like (Homo sapiens) (UniProt P37023)
Activin receptor type-1-like (Homo sapiens), sequence (P37023 whole entry): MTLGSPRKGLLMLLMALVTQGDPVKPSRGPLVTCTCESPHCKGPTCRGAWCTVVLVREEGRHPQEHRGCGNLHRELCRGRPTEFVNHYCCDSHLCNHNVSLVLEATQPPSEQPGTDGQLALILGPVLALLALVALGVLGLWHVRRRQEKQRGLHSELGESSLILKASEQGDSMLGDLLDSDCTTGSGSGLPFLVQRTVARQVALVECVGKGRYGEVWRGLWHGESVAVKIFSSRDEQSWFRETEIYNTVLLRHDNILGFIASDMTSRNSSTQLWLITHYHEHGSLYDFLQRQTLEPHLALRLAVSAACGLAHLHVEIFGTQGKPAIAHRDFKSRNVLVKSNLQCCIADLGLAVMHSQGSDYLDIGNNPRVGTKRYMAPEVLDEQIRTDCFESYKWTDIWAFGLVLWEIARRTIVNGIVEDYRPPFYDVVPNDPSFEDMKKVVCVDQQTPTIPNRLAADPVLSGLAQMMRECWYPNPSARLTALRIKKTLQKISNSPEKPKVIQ

[28] = target: Casein kinase II subunit alpha (Homo sapiens) (UniProt P68400)
[29] = target: RAF proto-oncogene serine/threonine-protein kinase (Homo sapiens) (UniProt P04049)
[30] = target: Calcium/calmodulin-dependent protein kinase type IV (Homo sapiens) (UniProt Q16566)
[31] = target: Tyrosine-protein kinase JAK3 (Homo sapiens) (UniProt P52333)
[32] = target: Tyrosine-protein kinase TXK (Homo sapiens) (UniProt P42681)
[33] = test system: Epidermal growth factor receptor (Homo sapiens), P00533 [UNDEFINED MUTATION]; remark: listed apart in the source
[34] = target: Muscle, skeletal receptor tyrosine-protein kinase (Homo sapiens) (UniProt O15146)
[35] = target: Wee1-like protein kinase (Homo sapiens) (UniProt P30291)
[36] = test system: Receptor-type tyrosine-protein kinase FLT3 (Homo sapiens), P36888 [UNDEFINED MUTATION]
[37] = test system: Tyrosine-protein kinase ABL1 (Homo sapiens), P00519 [M351T]
[38] = target: Myosin light chain kinase (Homo sapiens) (UniProt Q32MK0)
Myosin light chain kinase (Homo sapiens), sequence (Q32MK0 whole entry): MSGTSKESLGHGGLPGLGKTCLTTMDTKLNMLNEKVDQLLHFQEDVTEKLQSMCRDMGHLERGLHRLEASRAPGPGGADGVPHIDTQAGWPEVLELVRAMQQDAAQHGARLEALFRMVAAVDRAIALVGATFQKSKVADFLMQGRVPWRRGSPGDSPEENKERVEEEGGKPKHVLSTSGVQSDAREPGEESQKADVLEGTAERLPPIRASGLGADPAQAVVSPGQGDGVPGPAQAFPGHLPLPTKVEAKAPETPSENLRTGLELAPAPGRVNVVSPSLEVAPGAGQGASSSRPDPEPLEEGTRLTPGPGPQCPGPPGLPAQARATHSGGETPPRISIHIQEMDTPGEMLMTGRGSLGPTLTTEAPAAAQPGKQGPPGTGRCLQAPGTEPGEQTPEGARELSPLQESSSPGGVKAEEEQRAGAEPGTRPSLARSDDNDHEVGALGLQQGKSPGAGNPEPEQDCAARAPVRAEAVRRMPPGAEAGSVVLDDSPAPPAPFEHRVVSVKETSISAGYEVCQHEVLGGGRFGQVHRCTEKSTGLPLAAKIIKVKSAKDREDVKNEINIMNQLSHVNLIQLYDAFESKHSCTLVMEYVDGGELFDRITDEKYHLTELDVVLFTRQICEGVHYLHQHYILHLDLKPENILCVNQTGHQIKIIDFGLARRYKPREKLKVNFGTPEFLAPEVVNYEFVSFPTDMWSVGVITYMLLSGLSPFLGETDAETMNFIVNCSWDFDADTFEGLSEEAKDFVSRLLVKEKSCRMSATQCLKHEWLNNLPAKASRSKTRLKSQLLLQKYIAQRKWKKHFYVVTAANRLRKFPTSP

[39] = target: Vascular endothelial growth factor receptor 3 (Homo sapiens) (UniProt P35916)
[40] = target: Tyrosine-protein kinase Fyn (Homo sapiens) (UniProt P06241)
[41] = target: Mitogen-activated protein kinase 4 (Homo sapiens) (UniProt P31152)
Mitogen-activated protein kinase 4 (Homo sapiens), sequence (P31152 whole entry): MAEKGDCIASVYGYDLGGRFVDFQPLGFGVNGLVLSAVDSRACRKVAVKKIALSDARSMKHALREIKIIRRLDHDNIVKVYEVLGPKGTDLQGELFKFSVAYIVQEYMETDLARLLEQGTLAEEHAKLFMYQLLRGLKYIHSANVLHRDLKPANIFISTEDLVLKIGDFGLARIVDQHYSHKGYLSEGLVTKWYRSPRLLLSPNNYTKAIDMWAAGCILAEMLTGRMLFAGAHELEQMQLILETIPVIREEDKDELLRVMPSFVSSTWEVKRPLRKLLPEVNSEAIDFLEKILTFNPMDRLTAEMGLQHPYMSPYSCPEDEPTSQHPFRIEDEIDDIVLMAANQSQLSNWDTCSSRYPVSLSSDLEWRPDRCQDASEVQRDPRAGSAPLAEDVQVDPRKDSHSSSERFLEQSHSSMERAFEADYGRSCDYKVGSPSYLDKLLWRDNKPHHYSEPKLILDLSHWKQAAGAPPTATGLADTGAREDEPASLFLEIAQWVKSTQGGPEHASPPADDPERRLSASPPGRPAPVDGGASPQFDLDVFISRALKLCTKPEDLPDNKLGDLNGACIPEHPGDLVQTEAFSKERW

[42] = target: Serine/threonine-protein kinase Nek2 (Homo sapiens) (UniProt P51955)
[43] = target: 5'-AMP-activated protein kinase catalytic subunit alpha-1 (Homo sapiens) (UniProt Q13131)
[44] = test system: Phosphatidylinositol 4,5-bisphosphate 3-kinase catalytic subunit alpha isoform (Homo sapiens), P42336 [I800L]
[45] = target: Dual specificity mitogen-activated protein kinase kinase 2 (Homo sapiens) (UniProt P36507)

Measured: residual activity

COc1cc(-c2cn([C@H]3CCc4c(F)cccc4N(CC(F)(F)F)C3=O)nn2)ccc1-n1cnc(C)c1
inactive: [1] 100% | [2] 100% | [3] 100% | [4] 100% | [5] 56% | [6] 100% | [7] 100% | [8] 52% | [9] 100% | [10] 100% | [11] 94% | [12] 99% | [13] 100% | [14] 100% | [15] 100% | [16] 73% | [17] 100% | [18] 100% | [19] 98% | [20] 100% | [21] 100% | [22] 100% | [23] 100% | [24] 100% | [25] 92% | [26] 100% | [27] 100% | [28] 100% | [29] 100% | [30] 100% | [31] 100% | [32] 100% | [33] 100% | [34] 100% | [35] 79% | [36] 100% | [37] 95% | [38] 92% | [39] 100% | [40] 100% | [41] 89% | [42] 100% | [43] 100% | [44] 66% | [45] 100%

COc1cc(-c2cn([C@H]3CCc4ccccc4N(CC(F)(F)F)C3=O)nn2)ccc1-n1ccc(C)n1
inactive: [1] 93% | [2] 100% | [3] 100% | [4] 99% | [5] 52% | [6] 96% | [7] 100% | [8] 55% | [9] 89% | [10] 100% | [11] 100% | [12] 79% | [13] 100% | [14] 96% | [15] 100% | [16] 65% | [17] 100% | [18] 100% | [19] 100% | [20] 100% | [21] 98% | [22] 93% | [23] 72% | [24] 95% | [25] 93% | [26] 100% | [27] 100% | [28] 81% | [29] 98% | [30] 100% | [31] 88% | [32] 84% | [33] 100% | [34] 99% | [35] 100% | [36] 99% | [37] 64% | [38] 100% | [39] 100% | [40] 94% | [41] 99% | [42] 100% | [43] 100% | [44] 76% | [45] 98%
